Results on 2 molecules are retold here after patent US8110569B2, “Enantiomerically pure S-etifoxine, pharmaceutical compositions thereof and methods of their use” (The Regents of the University of California, priority 2006, dated 2012).

The subject of series [1] is α1β1-3γ2L GABAA receptors. Kind of series: Modulation of GABA-evoked currents in Xenopus oocytes (2-electrode voltage clamp), GABA subunit selectivity. The format is cell-based. As to conditions: human GABAA receptor subunits expressed in Xenopus oocytes; for GABA subunit selectivity: GABA EC10 control currents, FIGS. 4A and 4B. The method, then:
GABA subunit selectivity of etifoxine enantiomers was measured based on their ability to modulate the GABA-evoked currents in Xenopus oocytes.
Receptor mRNA preparation: cDNA clones encoding human GABAA receptor subunits were obtained from commercial sources. mRNA was prepared using conventional techniques with commercially-available “mMessage machine” kits (Ambion). Individual mRNAs (˜1 μg/μL) were stored in aliquots at −80° C.
mRNA injections into Xenopus oocytes: Preparation and micro-injection of oocytes were performed as reported in detail previously (see, Whittemore et al., 1996, Mol Pharmacol 50: 1364-1375). Individual oocytes were injected with 5-50 ng of mRNA at 5:1:1 (GABA). For example, individual oocytes were injected with a 5:1:1 mixture of α1, β1-3, and γ2L (˜5-50 ng of each subunit per cell) to produce expression of α1β1-3γ2L GABAA receptors. Following injections, oocytes were maintained at 16-17° C. in Barth's medium containing (in mM): NaCl, 88; KCl, 1; CaCl2, 0.41; Ca(NO3)2, 0.33; MgSO4, 0.82; NaHCO3, 2.4; HEPES 5; pH=7.4, with 0.1 mg/ml gentamycin sulfate.
Oocyte Electrophysiological recordings: Individual oocytes were placed on a nylon mesh in a 35 mm dish, perfused with frog Ringer (see, Whittemore et al., supra), and voltage clamped at a holding potential of −70 mV. In some cases, simple voltage steps were made to test voltage-dependence. Oocytes were perfused with fresh Ringer or exposed to GABA ±modulators using a custom-made gravity-driven perfusion system consisting of a linear array of 3 capillary tubes. The concentration of GABA used to evoke control currents was adjusted for each individual oocyte to be ˜10% of the maximal current (EC10) measured in that cell. The concentration of GABA required to evoke EC10 ‘control’ currents varied between ˜2 and 12 μM. […] Data are expressed as % of control currents (% modulation=100*[(modulated current/GABA control current)−1].

The subject of series [2] is mouse formalin pain model. The series can be described thus: Mouse formalin test, late phase licking (analgesic effect). It is filed as in vivo. The note with it: 3 mg/kg i.p., 30 minutes prior to formalin; male NSA mice; FIG. 5. The protocol: The analgesic effect of test compounds was assessed in a mouse formalin pain model (Hole et al., 1993, Pain 53:247-254). Male NSA mice weighing between 27 and 30 g were housed with access to food and water ad libitum until the test date. On the day of testing, they were given a period of 1 h to adjust to the test chamber. Test compounds or vehicle control (75% polyethylene glycol in 5% dextrose+water) were administered i.p. at 30 minutes prior to the administration of formalin. A solution of 20 μl of 2.5% formalin was then injected subcutaneously into the dorsal side of the hind paw of the test mouse. Immediately following formalin injection, the mice were observed over the next 50 min and the time spent licking the injected hind paw was recorded. The observation time was broken down into 5 minute “bins”, with 10 bins in total. The first 5-min bin is the early phase, considered to be reflective of acute pain. Bins three to ten make up the late phase, considered a measure of chronic inflammatory pain. The results for the late phase are expressed as the averaged mean time (in seconds) that mice spent licking in a 5-min period.
Dose-response relationship was conducted in the range of 3 to 60 mg/kg. Statistical differences in response were determined by one-way analysis of variance with the Dunnett's post-hoc test by using the Prism3 statistical software (GraphPad, Inc., San Diego, Calif.).

Series [3] can be described thus: In vivo racemization study, plasma enantiomers by chiral LC-MS/MS. Details: species or system mouse. As to conditions: 30 mg/kg perorally, NSA mice, plasma 30 minutes post dose; FIG. 6A. The protocol: Pure S-etifoxine was administered at 30 mg/kg, perorally, to NSA mice. The desired enantiomer was dissolved in PEG at a concentration of 15 mg/mL and a dose of 2 mL/kg was administered perorally to overnight fasted mice. Plasma concentration of etifoxine enantiomers was determined by LC-MS/MS analysis.
A mixture of 100 μL plasma and 200 μL water in a 6-mL plastic culture tube was vortexed briefly, for about 10 seconds. To this was added 1.5 mL methyl tert-butyl ether and 1.5 mL hexane and vortexed briefly for about 10 seconds. The mixture was centrifuged for about 10 minutes and frozen at −80° C. for 10 minutes. The organic layer was collected and dried under nitrogen at 37° C. The solid was resuspended in 250 μL methanol, vortexed and transferred to 96-well plate.
The samples were analyzed by LC-MS/MS on a […] CHIRALCEL® OD (lot #OD00CE-FJ033) column at room temperature. A mixture of 75% hexane, 25% isopropyl alcohol and 0.05% […] was used as an isocratic mobile phase. The flow rate was set at 1 mL/min at room temperature. Racemic etifoxine spiked into plasma was used as a reference standard. FIGS. 6A and 6B provide representative chromatograms of extracted plasma sample (pure S-etifoxine, dosed at 30 mg/kg/po at 30 minutes post dose) and racemic standard spiked into plasma (100 ng/mL), respectively. […]

Turning to `CCN=C1Nc2ccc(Cl)cc2[C@@](C)(c2ccccc2)O1` [R-etifoxine], the GABA subunit selectivity result in series [1] is “little or no GABA subunit selectivity”.
For the molecule `CCNC1=Nc2ccc(Cl)cc2C(C)(c2ccccc2)O1` (centres unmarked) [S-etifoxine], in series [1] (FIG. 4B), the “selectivity between β2 and β1 subunit” value is reported as “more selective for β2 subunit than β1 subunit”. Moreover, in series [1], the GABA subunit selectivity entry is recorded as “shows selectivity for GABA receptor comprising β subunit”. The “activity in the formalin test (late phase licking)” value in series [2] is reported as “active”. Besides, in series [3], the “racemization in vivo (R-etifoxine in plasma)” value was “little or no racemization in vivo”.
